From PubChem BioAssay (NCI)
Where “and” joins values, the source holds several entries; their conditions need not be identical. Equal entries are not always repeated.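 Test compounds were applied to cells in 96-well plates for 48 hours at 5 doses. At the GI50, growth is halved. TGI marks complete inhibition of growth.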

Columns and labels:
Assay in all cases: NCI-60 cell line screen, 48 h
A549 NSCLC = system: A549 NSCLC
SK-MEL-28 melanoma = system: SK-MEL-28 melanoma
NCI-H23 lung = system: NCI-H23 lung
SF-268 CNS = system: SF-268 CNS
786-0 renal = system: 786-0 renal
A498 renal = system: A498 renal
IGROV1 ovarian = system: IGROV1 ovarian
OVCAR-3 ovarian = system: OVCAR-3 ovarian
SF-539 CNS = system: SF-539 CNS
MDA-MB-231 breast = system: MDA-MB-231 breast

SMILES	GI50 (A549 NSCLC) [µM]	TGI (A549 NSCLC) [µM]	GI50 (SK-MEL-28 melanoma) [µM]	TGI (SK-MEL-28 melanoma) [µM]	GI50 (NCI-H23 lung) [µM]	TGI (NCI-H23 lung) [µM]	GI50 (SF-268 CNS)	TGI (SF-268 CNS) [µM]	GI50 (786-0 renal)	TGI (786-0 renal) [µM]	GI50 (A498 renal) [µM]	TGI (A498 renal) [µM]	GI50 (IGROV1 ovarian) [µM]	TGI (IGROV1 ovarian) [µM]	GI50 (OVCAR-3 ovarian) [nM]	TGI (OVCAR-3 ovarian) [µM]	GI50 (SF-539 CNS) [nM]	TGI (SF-539 CNS) [µM]	GI50 (MDA-MB-231 breast) [µM]	TGI (MDA-MB-231 breast) [µM]
O=C(/C=C/c1cccc(Cl)c1)c1ccc(Cl)cc1Cl	10.4	29.7	9.69	26.6	10.2	19.3	10.2 µM	25.1	12.9 µM	27.6	9.71	27.7	7.56	> 50	8540	17.3	12600	28	13	34.7
C=C1C(C)C2C(Cc3ccccc3)NC(=O)C23C(OC(C)=O)/C=C/C(C)(O)CC(C)C/C=C/C3C1O (configuration not stated)	–	> 100	–	> 97.7	–	91.6	–	41.2	–	> 100	–	1.15	–	48.2	–	> 100	–	13	–	> 100
COc1ccc(C(O)c2cc3c(N)c(C(=O)Nc4cccc(Br)c4)sc3nc2C)cc1 (configuration not stated)	0.14	> 100	22.3	> 100	0.181	> 60.4	0.29 µM	> 32.6	0.225 µM	> 39.4	0.0536	0.231	0.231	> 100	94.9	0.322	24.8	0.0833	0.104	1.63
COc1ccc([C@H]2O[C@@H](CO)C[C@]2(O)c2ccc(OC)cc2)cc1	> 100	> 100	> 100	> 100	> 100	> 100	> 100 µM	> 100	> 100 µM	> 100	> 100	> 100	> 100	> 100	> 100000	> 100	> 100000	> 100	> 100	> 100
O=C(/C=C/c1ccco1)Nc1ncc(Cc2ccc(F)cc2)s1	0.118	> 100	3.5	> 100	0.234	> 100	0.201 µM	> 100	0.157 µM	> 100	0.027	0.0975	0.167	> 100	33.6	0.141	68.6	0.379	0.199	> 45.4
Cn1ccnc1C(=O)/C=C/c1ccc(C(=O)Nc2nc3ccccc3[nH]2)cc1	10.3	> 25	> 25	> 25	3.34	> 25	2.41 µM	> 25	4.44 µM	> 25	4.71	> 25	5.67	> 25	894	17.2	2700	18	3.05	13.1
COC(=O)CCC1=C(C)c2cc3[n-]c(cc4nc(cc5[n-]c(cc1n2)c(CCC(=O)OC)c5C)C=C4C)cc3C.[Cd+2]	4.24	22.9	4.69	21.2	3.03	16.7	3.14 µM	14.9	11.3 µM	39.3	9.01	26.3	3.03	8.82	1730	3.81	4390	15.2	7.28	31.4
O=c1[nH]c(-c2ccc(C(F)(F)F)cc2)nc2c1CSCC2	32.9	> 100	80.3	> 100	41.9	> 100	53.2 µM	> 100	35.3 µM	> 100	22.9	97.3	43.1	> 100	27000	> 100	> 100000	> 100	40.4	> 100
FC(F)(F)c1ccc(-c2cnc(Br)nc2NC2CCCCCC2)cc1	86.5	> 100	> 100	> 100	32.9	> 100	> 100 µM	> 100	91.2 µM	> 100	40	> 100	> 100	> 100	70800	> 100	> 100000	> 100	12.3	> 100
COc1ccc(/C=C\c2cc(OC)c(OC)c(OC)c2)c(NS(=O)(=O)c2ccc(C)cc2)c1O	0.0473	> 100	0.602	> 96.2	0.0451	49.6	0.226 µM	> 91.5	0.129 µM	30.2	0.022	0.0805	0.075	> 100	30	1.65	23.7	0.0641	0.0516	29.9
O=[As](O)(O)c1ccc(Cc2ccc([As](=O)(O)O)cc2)cc1	–	3.81	–	2.92	–	2.26	–	1.85	–	1.29	–	3.96	–	1.94	–	2.64	–	0.542	–	2.3
COc1cc(C2C(C#N)=C(N)OC3=C2C(=O)c2ccccc2C3=O)cc(OC)c1OC (configuration not stated)	1.32	29.6	6.72	22.9	0.713	4.34	6.58 µM	60.7	5.8 µM	> 100	0.327	11.8	2.24	19.2	493	4.18	344	4.56	3.53	41.7
Oc1ccc2ccccc2c1N=Nc1ccccc1	–	> 100	–	> 100	–	> 100	25 µM and > 63.8 µM	> 100	35.4 µM and > 100 µM	> 100	–	> 100	–	> 100	–	> 100	–	> 100	–	> 100
